Laboratory results: patent publication US20250154146A1, “PROTEIN DEGRADERS DEVELOPED ON BASIS OF BCL-2 FAMILY PROTEIN LIGAND COMPOUNDS AND USE THEREOF” (ShanghaiTech University, priority 2022, published 2025)

Assays:
Type in all cases: cell-based
RS4;11 cells = assay: Thiazolyl blue cell proliferation assay in RS4;11 cells; settings: Homo sapiens, RS4;11 acute lymphoblastic leukemia cells, 48 hours, read-out: IC50 (nM) for inhibiting the proliferation of RS4;11 cells
Text: (§1) The cell lines RS4;11 (human acute lymphocytic leukemia cells), Molt-4 cells (human acute lymphocytic leukemia cells), MV4;11 (human myeloid monocytic leukemia cells), and Light II cells were commercially available or purchased from ATCC (American Type Culture Collection) and routinely cultured according to instructions.
1) Study on the proliferation inhibition effects induced by the compounds of the present disclosure designed based on ABT199/263 against BCL-XL-dependent RS4;11 cells:
(§2) The specific steps were as follows: RS4;11 cells were seeded at a density of 3×10^4 cells/well in 90 μL of serum-containing RPMI-1640 culture medium. DT2216 and the compounds of the present disclosure were added to the cell suspension at corresponding concentration gradients. DT2216 and DMSO were used as positive and vehicle control, respectively. The positive control and negative control were treated with the same treatment method as the compounds of the present disclosure. After treating the cells with the compounds of the present disclosure for 48 hours, thiazole blue solution (5 mg/mL) was added at 10 μL/well to the cell suspension, followed by incubation for 3 hours at 37° C. in an incubator with 5% CO2. Then, triple solution (0.1 g/mL SDS, 5% isopropyl alcohol, 10 mM hydrochloric acid) was added, followed by incubation for 4-6 hours at 37° C. in an incubator with 5% CO2. After confirming that all the crystal violets were dissolved under inverted biological microscopy, the absorbance was measured at 490 nm using an Epoch microplate reader (Biotek Corporation). The growth inhibition of the compounds of the present disclosure on the cells was plotted by GraphPad Prism 8 software, and the IC50 values of the compounds of the present disclosure were calculated therefrom. The experiment had 3 replicates per group and was repeated at least three times.
We conducted dose-dependent experiments on the designed and synthesized compounds of the present disclosure in RS4;11 cells, which are highly sensitive to BCL-XL inhibitors. The cells were treated with 7 different concentrations (starting at the highest concentration of 1000 nM or 100 nM; 10-fold serial dilutions) of the compounds for 48 hours, and then tested using the thiazolyl blue cell proliferation assay.

Molt-4 cells = assay: Thiazolyl blue cell proliferation assay in Molt-4 cells; settings: Homo sapiens, Molt-4 acute lymphocytic leukemia cells, 72 hours, read-out: IC50 (nM) for inhibiting the proliferation of Molt-4 cells
Text: as §1
3) Study on the proliferation inhibition effects induced by the compounds of the present disclosure designed based on ABT199/263 against BCL-XL-dependent Molt-4 cells:
as §2, with “follows: Molt-4” for “follows: RS4;11”, “of 2×10^4” for “of 3×10^4”, “in 180” for “in 90”, “serum-containing RPMI 1640” for “serum-containing RPMI-1640”, “for 72” for “for 48”, “at 20” for “at 10”

MV4;11 cells = assay: Thiazolyl blue cell proliferation assay in MV4;11 cells; settings: Homo sapiens, MV4;11 myeloid monocytic leukemia cells, 48 hours, read-out: IC50 (nM) for inhibiting the proliferation of MV4;11 cells
Text: as §1
2) Study on the proliferation inhibition effects induced by the compounds of the present disclosure designed based on ABT199/263 against BCL-XL-dependent MV4;11 cells:
as §2, with “MV4;11” for “RS4;11”, “2×10^4” for “3×10^4”, “IMDM” for “RPMI-1640”, “µL/well” for “μL/well”

| IC50 (RS4;11 cells) [nM] | IC50 (Molt-4 cells) [nM] | IC50 (MV4;11 cells) [nM] | Structure (SMILES) |
| --- | --- | --- | --- |
| < 20 | < 10 | < 20 | CC1(C)CCC(CN2CCN(c3ccc(C(=O)NS(=O)(=O)c4ccc(NC[C@H]5CC[C@H](N6CCN(Cc7ccc8c(c7)C(=O)N(C7CCC(=O)NC7=O)C8=O)CC6)CC5)c([N+](=O)[O-])c4)c(Oc4cnc5[nH]ccc5c4)c3)CC2)=C(c2ccc(Cl)cc2)C1 (relative stereo) [BCL-03188, 2-((1H-pyrrolo[2,3-b]pyridin-5-yl)oxy)-4-(4-((4′-chloro-5,5-dimethyl-3,4,5,6-tetrahydro-[1,1′-biphenyl]-2-yl)methyl)piperazin-1-yl)-N-((4-((((trans)-4-(4-((2-(2,6-dioxopiperidin-3-yl)-1,3-dioxoisoindolin-5-yl)methyl)piperazin-1-yl)cyclohexyl)methyl)amino)-3-nitrophenyl)sulfonyl)benzamide] |
| – | < 10 | – | C[C@H]1CN([C@H]2CC[C@H](CNc3ccc(S(=O)(=O)NC(=O)c4ccc(N5CCN(CC6=C(c7ccc(Cl)cc7)CC(C)(C)CC6)CC5)cc4Oc4cnc5[nH]ccc5c4)cc3[N+](=O)[O-])CC2)CCN1Cc1cc(Br)c2c(c1)C(=O)N(C1CCC(=O)NC1=O)C2 (stereo partly drawn) [BCL-03170, 2-((1H-pyrrolo[2,3-b]pyridin-5-yl)oxy)-N-((4-((((trans)-4-((3S)-4-((7-bromo-2-(2,6-dioxopiperidin-3-yl)-3-oxoisoindolin-5-yl)methyl)-3-methylpiperazin-1-yl)cyclohexyl)methyl)amino)-3-nitrophenyl)sulfonyl)-4-(4-((4′-chloro-5,5-dimethyl-3,4,5,6-tetrahydro-[1,1′-biphenyl]-2-yl)methyl)piperazin-1-yl)benzamide] |
| – | < 10 | – | C[C@@H]1CN([C@H]2CC[C@@H](CNc3ccc(S(=O)(=O)NC(=O)c4ccc(N5CCN(CC6=C(c7ccc(Cl)cc7)CC(C)(C)CC6)CC5)cc4Oc4cnc5[nH]ccc5c4)cc3[N+](=O)[O-])CC2)CCN1Cc1cc(Br)c2c(c1)C(=O)N(C1CCC(=O)NC1=O)C2 (stereo partly drawn) [BCL-03171, 2-((1H-pyrrolo[2,3-b]pyridin-5-yl)oxy)-N-((4-((((cis)-4-((3R)-4-((7-bromo-2-(2,6-dioxopiperidin-3-yl)-3-oxoisoindolin-5-yl)methyl)-3-methylpiperazin-1-yl)cyclohexyl)methyl)amino)-3-nitrophenyl)sulfonyl)-4-(4-((4′-chloro-5,5-dimethyl-3,4,5,6-tetrahydro-[1,1′-biphenyl]-2-yl)methyl)piperazin-1-yl)benzamide] |
| – | < 10 | – | C[C@@H]1CN([C@H]2CC[C@H](CNc3ccc(S(=O)(=O)NC(=O)c4ccc(N5CCN(CC6=C(c7ccc(Cl)cc7)CC(C)(C)CC6)CC5)cc4Oc4cnc5[nH]ccc5c4)cc3[N+](=O)[O-])CC2)CCN1Cc1cc(Br)c2c(c1)C(=O)N(C1CCC(=O)NC1=O)C2 (stereo partly drawn) [BCL-03172, 2-((1H-pyrrolo[2,3-b]pyridin-5-yl)oxy)-N-((4-((((trans)-4-((3R)-4-((7-bromo-2-(2,6-dioxopiperidin-3-yl)-3-oxoisoindolin-5-yl)methyl)-3-methylpiperazin-1-yl)cyclohexyl)methyl)amino)-3-nitrophenyl)sulfonyl)-4-(4-((4′-chloro-5,5-dimethyl-3,4,5,6-tetrahydro-[1,1′-biphenyl]-2-yl)methyl)piperazin-1-yl)benzamide] |
| – | < 10 | – | CC1(C)CCC(c2ccc(Cl)cc2)=C(CN2CCN(c3ccc(C(=O)NS(=O)(=O)c4ccc(N[C@H](CCN5CCN(Cc6cc(Br)c7c(c6)C(=O)N(C6CCC(=O)NC6=O)C7)CC5)CSc5ccccc5)c(S(=O)(=O)C(F)(F)F)c4)cc3)CC2)C1 (stereo partly drawn) [BCL-03178, N-((4-(((2R)-4-(4-((7-bromo-2-(2,6-dioxopiperidin-3-yl)-3-oxoisoindolin-5-yl)methyl)piperazin-1-yl)-1-(phenylthio)butan-2-yl)amino)-3-((trifluoromethyl)sulfonyl)phenyl)sulfonyl)-4-(4-((4′-chloro-4,4-dimethyl-3,4,5,6-tetrahydro-[1,1′-biphenyl]-2-yl)methyl)piperazin-1-yl)benzamide] |
| < 20 | < 10 | < 20 | CC1(C)CCC(CN2CCN(c3ccc(C(=O)NS(=O)(=O)c4ccc(NC[C@H]5CC[C@H](N6CCN(Cc7ccc8c(c7)CN(C7CCC(=O)NC7=O)C8=O)CC6)CC5)c(S(=O)(=O)C(F)(F)F)c4)c(Oc4cnc5[nH]ccc5c4)c3)CC2)=C(c2ccc(Cl)cc2)C1 (stereo partly drawn) [BCL-03179, 2-((1H-pyrrolo[2,3-b]pyridin-5-yl)oxy)-4-(4-((4′-chloro-5,5-dimethyl-3,4,5,6-tetrahydro-[1,1′-biphenyl]-2-yl)methyl)piperazin-1-yl)-N-((4-((((trans)-4-(4-((2-(2,6-dioxopiperidin-3-yl)-1-oxoisoindolin-5-yl)methyl)piperazin-1-yl)cyclohexyl)methyl)amino)-3-((trifluoromethyl)sulfonyl)phenyl)sulfonyl)benzamide] |
| < 20 | – | – | CC1(C)CCC(c2ccc(Cl)cc2)=C(CN2CCN(c3ccc(C(=O)NS(=O)(=O)c4ccc(NC[C@H]5CC[C@H](N6CCN(Cc7ccc8c(c7)CN(C7CCC(=O)NC7=O)C8=O)CC6)CC5)c(S(=O)(=O)C(F)(F)F)c4)cc3)CC2)C1 (stereo partly drawn) [BCL-03180, 4-(4-((4′-chloro-4,4-dimethyl-3,4,5,6-tetrahydro-[1,1′-biphenyl]-2-yl)methyl)piperazin-1-yl)-N-((4-((((trans)-4-(4-((2-(2,6-dioxopiperidin-3-yl)-1-oxoisoindolin-5-yl)methyl)piperazin-1-yl)cyclohexyl)methyl)amino)-3-((trifluoromethyl)sulfonyl)phenyl)sulfonyl)benzamide] |
| < 20 | – | – | CC1(C)CCC(c2ccc(Cl)cc2)=C(CN2CCN(c3ccc(C(=O)NS(=O)(=O)c4ccc(NC[C@H]5CC[C@H](N6CCN(Cc7ccc8c(c7)CN(C7CCC(=O)NC7=O)C8=O)CC6)CC5)c([N+](=O)[O-])c4)cc3)CC2)C1 (stereo partly drawn) [BCL-03181, 4-(4-((4′-chloro-4,4-dimethyl-3,4,5,6-tetrahydro-[1,1′-biphenyl]-2-yl)methyl)piperazin-1-yl)-N-((4-((((trans)-4-(4-((2-(2,6-dioxopiperidin-3-yl)-1-oxoisoindolin-5-yl)methyl)piperazin-1-yl)cyclohexyl)methyl)amino)-3-nitrophenyl)sulfonyl)benzamide] |
